Legend:
HeLa [1] = assay: Antiproliferative activity against human HeLa cells assessed as reduction in cell viability incubated for 72 hrs by MTT assay; type: functional, cell-based
HeLa [2] = assay: Antiproliferative activity against human HeLa cells assessed as inhibition of cell growth incubated for 72 hrs in absence of verapamil by MTT assay; type: functional, cell-based
[3] = Antiproliferative activity against human HEK293 cells assessed as reduction in cell viability incubated for 72 hrs by CelltiterGlo luminescent assay; type: toxicity, cell-based
cells = conditions: Homo sapiens, MDA-MB-468, 72 h
CAKI-1 = assay: Antiproliferative activity against human CAKI-1 cells assessed as reduction in cell viability incubated for 72 hrs by CelltiterGlo luminescent assay; conditions: CAKI-1, 72 h
MCF7 = assay: Antiproliferative activity against human MCF7 cells assessed as reduction in cell viability incubated for 72 hrs by CelltiterGlo luminescent assay; type: functional, cell-based; conditions: MCF7, 72 h
[4] = Antiproliferative activity against human RPE-1 cells assessed as reduction in cell viability incubated for 72 hrs by CelltiterGlo luminescent assay; type: toxicity, cell-based; conditions: RPE-1 cells (TERT-RPE1)
HeLa [5] = assay: Antiproliferative activity against human HeLa cells assessed as reduction in cell viability incubated for 72 hrs by CelltiterGlo luminescent assay; type: functional, cell-based
MDA-MB-468 = assay: cells; conditions: Homo sapiens, MDA-MB-468, 72 h
Description: Antiproliferative activity against human MDA-MB-468 cells assessed as reduction in cell viability incubated for 72 hrs by CelltiterGlo luminescent assay

[6] = Antiproliferative activity against human WM1366 cells assessed as reduction in cell viability incubated for 72 hrs by CelltiterGlo luminescent assay; conditions: WM1366, 72 h
HT-1080 = assay: Antiproliferative activity against human HT-1080 cells assessed as reduction in cell viability incubated for 72 hrs by CelltiterGlo luminescent assay; conditions: HT-1080, 72 h
MES-SA = assay: Antiproliferative activity against human MES-SA cells assessed as reduction in cell viability incubated for 72 hrs by CelltiterGlo luminescent assay
HeLa [7] = assay: Antiproliferative activity against human HeLa cells assessed as inhibition of cell growth incubated for 72 hrs in presence of verapamil by MTT assay; type: functional, cell-based
[8] = Antiproliferative activity against human Melmet 5 cells assessed as reduction in cell viability incubated for 72 hrs by CelltiterGlo luminescent assay; conditions: Melmet 5, 72 h
A-375 = assay: Antiproliferative activity against human A-375 cells assessed as reduction in cell viability incubated for 72 hrs by CelltiterGlo luminescent assay; conditions: A-375, 72 h
BT-474 = assay: Antiproliferative activity against human BT-474 cells assessed as reduction in cell viability incubated for 72 hrs by CelltiterGlo luminescent assay; conditions: BT-474, 72 h
[9] = Antiproliferative activity against human Hermes 3C cells assessed as reduction in cell viability incubated for 72 hrs by CelltiterGlo luminescent assay; type: toxicity, cell-based

Which IC50 (HeLa [1]) does the source give for `COc1cc(S(=O)(=O)N(CCCN2CCOCC2)c2ccc3c(ccn3C)c2)cc(OC)c1OC` here?
Its IC50 is over 1000 nM.

Which IC50 (HeLa [1]) does the source give for `COc1cc(S(=O)(=O)N(C)c2ccc3c(c2)c(C(=O)O)cn3C)cc(OC)c1OC` here?
Its IC50 is over 1000 nM.

With `COc1cc(S(=O)(=O)Nc2ccc3c(c2)c(C(N)=O)cn3C)cc(OC)c1OC` as the compound, how does the IC50 (HeLa [2]) read?
Its IC50 is 102 nM.

And the IC50 at 72 h [3]?
Its IC50 at 72 h is 492 nM.

What about the IC50 (cells) of the same compound?
The IC50 was 284 nM.

And the IC50 (CAKI-1)?
Its IC50 is 310 nM.

What about the IC50 (MCF7) of the same compound?
Its IC50 is 108 nM.

And the IC50 at 72 h [4]?
Its IC50 at 72 h is 173 nM.

And the IC50 (HeLa [5])?
Its IC50 is 93 nM.

What about the IC50 (MDA-MB-468) of the same compound?
The IC50 was 101 nM.

What about the IC50 [6] of the same compound?
Its IC50 is 278 nM.

And the IC50 (HeLa [1])?
Its IC50 is 102 nM.

And the IC50 (HT-1080)?
Its IC50 is 69.2 nM.

What about the IC50 (MES-SA) of the same compound?
The IC50 was 99.9 nM.

And the IC50 (HeLa [7])?
Its IC50 is 55.4 nM.

What about the IC50 [8] of the same compound?
Its IC50 is 29.5 nM.

What about the IC50 (A-375) of the same compound?
The IC50 was 245 nM.

What about the IC50 (BT-474) of the same compound?
The IC50 was 126 nM.

And the IC50 at 72 h [9]?
Its IC50 at 72 h is 466 nM.

With `COc1cc(S(=O)(=O)N(CCCCBr)c2ccc3c(ccn3C)c2)cc(OC)c1OC` as the compound, how does the IC50 (HeLa [1]) read?
Its IC50 is over 1000 nM.

For `COc1cc(S(=O)(=O)N(CC#N)c2ccc3c(c2)c(C=O)cn3C)cc(OC)c1OC`, which IC50 (HeLa [2]) is on record?
Its IC50 is 57.4 nM.

And the IC50 at 72 h [3]?
Its IC50 at 72 h is 70.9 nM.

What about the IC50 (cells) of the same compound?
Its IC50 is 14.7 nM.

And the IC50 (CAKI-1)?
The IC50 was 66.2 nM.

What about the IC50 (MCF7) of the same compound?
Its IC50 is 15.3 nM.

What about the IC50 at 72 h [4] of the same compound?
Its IC50 at 72 h is 41.3 nM.

And the IC50 (HeLa [5])?
The IC50 was 18.4 nM.

And the IC50 (MDA-MB-468)?
The IC50 was 15.2 nM.

What about the IC50 [6] of the same compound?
The IC50 was 31.4 nM.

And the IC50 (HeLa [1])?
The IC50 was 22.7 nM.

And the IC50 (HT-1080)?
The IC50 was 14 nM.

What about the IC50 (MES-SA) of the same compound?
The IC50 was 32.5 nM.

What about the IC50 (HeLa [7]) of the same compound?
Its IC50 is 52.4 nM.

And the IC50 [8]?
Its IC50 is 12.5 nM.

What about the IC50 (A-375) of the same compound?
The IC50 was 49.8 nM.

What about the IC50 (BT-474) of the same compound?
Its IC50 is 66.4 nM.

And the IC50 at 72 h [9]?
The IC50 at 72 h was 81.3 nM.

With `COc1cc(S(=O)(=O)N(Cc2cccc([N+](=O)[O-])c2)c2ccc3c(ccn3C)c2)cc(OC)c1OC` as the compound, how does the IC50 (HeLa [1]) read?
Its IC50 is over 1000 nM.

For `COc1cc(S(=O)(=O)N(Cc2ccc([N+](=O)[O-])cc2)c2ccc3c(ccn3C)c2)cc(OC)c1OC`, which IC50 (HeLa [1]) is on record?
The IC50 was over 1000 nM.

With `COc1cc(S(=O)(=O)N(CCCCN2CCOCC2)c2ccc3c(ccn3C)c2)cc(OC)c1OC` as the compound, how does the IC50 (HeLa [1]) read?
Its IC50 is over 1000 nM.

For `COc1cc(S(=O)(=O)N(CCCCCBr)c2ccc3c(ccn3C)c2)cc(OC)c1OC`, which IC50 (HeLa [1]) is on record?
Its IC50 is over 1000 nM.

Which IC50 at 72 h [3] does the source give for `CC(=O)O[C@@]12CO[C@@H]1C[C@H](O)[C@@]1(C)C(=O)[C@H](O)C3=C(C)[C@@H](OC(=O)[C@H](O)[C@@H](NC(=O)OC(C)(C)C)c4ccccc4)C[C@@](O)([C@@H](OC(=O)c4ccccc4)[C@H]21)C3(C)C` [DOCETAXEL ANHYDROUS] here?
Its IC50 at 72 h is 7.5 nM.

And the IC50 (cells)?
Its IC50 is 8.3 nM.

And the IC50 (CAKI-1)?
The IC50 was 2.7 nM.

What about the IC50 (MCF7) of the same compound?
Its IC50 is 3.9 nM.

And the IC50 at 72 h [4]?
The IC50 at 72 h was 8.2 nM.

And the IC50 (HeLa [5])?
The IC50 was 1 nM.

What about the IC50 (MDA-MB-468) of the same compound?
Its IC50 is 3.1 nM.

What about the IC50 [6] of the same compound?
The IC50 was 8.5 nM.

And the IC50 (HT-1080)?
The IC50 was 1.5 nM.

What about the IC50 (MES-SA) of the same compound?
The IC50 was 3.4 nM.

And the IC50 [8]?
The IC50 was 9.5 nM.

What about the IC50 (A-375) of the same compound?
Its IC50 is 4.5 nM.

And the IC50 (BT-474)?
Its IC50 is 21.4 nM.

What about the IC50 at 72 h [9] of the same compound?
The IC50 at 72 h was 1.7 nM.

Which results are given for `COc1cc2c(c(OC)c1OC)-c1ccc(OC)c(=O)cc1[C@@H](NC(C)=O)CC2` [COLCHICINE]?
IC50 (HeLa [2]): 16.7 nM; IC50 (HeLa [7]): 9.3 nM

With `COc1cc(S(=O)(=O)N(CCCCCCBr)c2ccc3c(ccn3C)c2)cc(OC)c1OC` as the compound, how does the IC50 (HeLa [1]) read?
The IC50 was over 1000 nM.

For `CCOC(=O)CCCCN(c1ccc2c(ccn2C)c1)S(=O)(=O)c1cc(OC)c(OC)c(OC)c1`, which IC50 (HeLa [1]) is on record?
The IC50 was over 1000 nM.

Which IC50 (HeLa [1]) does the source give for `COc1cc(S(=O)(=O)Nc2ccc3c(c2)C=CC3CC#N)cc(OC)c1OC` (centres undefined) here?
Its IC50 is 2560 nM.

Which IC50 (HeLa [2]) does the source give for `COc1cc(S(=O)(=O)N(C)c2ccc3c(c2)c(C=O)cn3C)cc(OC)c1OC` here?
The IC50 was 18.4 nM.

What about the IC50 at 72 h [3] of the same compound?
Its IC50 at 72 h is 50.2 nM.

And the IC50 (cells)?
The IC50 was 32.9 nM.

And the IC50 (CAKI-1)?
The IC50 was 12.9 nM.

What about the IC50 (MCF7) of the same compound?
Its IC50 is 9.3 nM.

And the IC50 at 72 h [4]?
Its IC50 at 72 h is 12 nM.

What about the IC50 (HeLa [5]) of the same compound?
Its IC50 is 5.3 nM.

And the IC50 (MDA-MB-468)?
Its IC50 is 17.2 nM.

And the IC50 [6]?
The IC50 was 11.6 nM.

And the IC50 (HeLa [1])?
The IC50 was 16.5 nM.

What about the IC50 (HT-1080) of the same compound?
The IC50 was 8.1 nM.

And the IC50 (MES-SA)?
Its IC50 is 17.9 nM.

And the IC50 (HeLa [7])?
Its IC50 is 14.6 nM.

What about the IC50 [8] of the same compound?
The IC50 was 3.9 nM.

What about the IC50 (A-375) of the same compound?
Its IC50 is 8.7 nM.

And the IC50 (BT-474)?
Its IC50 is 10.6 nM.

And the IC50 at 72 h [9]?
Its IC50 at 72 h is 52.8 nM.

With `CCOC(=O)CN(c1ccc2c(ccn2C)c1)S(=O)(=O)c1cc(OC)c(OC)c(OC)c1` as the compound, how does the IC50 (HeLa [1]) read?
Its IC50 is over 1000 nM.

With `COc1cc(S(=O)(=O)N(Cc2ccc(N)cc2)c2ccc3c(ccn3C)c2)cc(OC)c1OC` as the compound, how does the IC50 (HeLa [1]) read?
Its IC50 is 464 nM.
